The source of these data is PMC11137198 (Frontiers in Pharmacology, 2024).

Values joined by “and” are separate entries in the source; they are usually repeats but may differ in a detail not shown here. Equal values may be shown once. Read-outs that look alike come from different tables or passages of the source. Marks after values point to notes of the source that are not given here.

Details of data set [1]: method as in Tamarit et al., 2021; Tamarit et al., 2022. The following applies: cyclohexane, ref Tamarit et al., 2021, 2022; cited from earlier work.
In data set [2] the test system is HAG. Set-up: species or system human. As to conditions: binding constant within HAG, PBS. An excerpt:
(§1) To calculate the K B values by means of UV absorption spectroscopy, the same Eq. 1 has been applied but using A instead of F.
Competing interactions on mixtures containing the drug and a metabolite in the presence of HAG confirmed the consistency of the determined binding constants.

In data set [3] the target is T1, HAG (Homo sapiens, UniProt P02763).
T1 construct: α1-acid glycoprotein from human plasma (HAG) were purchased from Sigma-Aldrich; purchased Sigma-Aldrich; host or cells: human plasma
T1 sequence (P02763 19-201): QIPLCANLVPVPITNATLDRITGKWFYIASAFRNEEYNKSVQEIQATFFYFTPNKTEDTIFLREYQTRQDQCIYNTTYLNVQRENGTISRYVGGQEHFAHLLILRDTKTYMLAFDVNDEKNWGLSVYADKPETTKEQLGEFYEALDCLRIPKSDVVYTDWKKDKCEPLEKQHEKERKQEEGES
The data set is classed as physicochemical. As to conditions: HAG-bound; for weight of τ1 component / weight of τ2 component / τ2 / τ1: two-exponential fit; for τ2: long component; for τ1: short component; for λmax (fluorescence): 1:1 (10 μM). How it is done: (§2) Steady-state fluorescence spectra were recorded on an Edinburgh FS5 spectrofluorometer, provided with a monochromator in the wavelength range of 200–900 nm using an excitation wavelength of 340 nm at room temperature. Measurements on drug@protein complexes were performed in aerated PBS of 1:1 M ratio mixtures at 10 µM. The absorbance of the samples at the excitation wavelength was kept below 0.1. The fluorescence quantum yields were determined using anthracene in ethanol as reference ([Montalti et al., 2006]).
(§3) Time-resolved fluorescence measurements were performed with an EasyLife X system containing a sample compartment composed of an automated peltier cuvette holder to control the temperature at 24°C, a pulsed LED excitation source and a lifetime detector. The employed LED excitation source was 340 nm, with emission filter of WG370. The fluorescence lifetimes (τF) were obtained upon fitting the decay traces by a non-linear fitting/deconvolution procedure F(t) = Σa i ·exp(-t/τ i ) by means of a one- or two-exponential function, depending on the investigated system. All spectroscopic measurements were done in 10 × 10 mm^2 quartz cuvettes at room temperature.
The insets show the normalized spectra. For ligand@protein complexes, solutions were at 1:1 M ratio (10 μM).

Data set [4] concerns the target T2, HSA (Homo sapiens, UniProt P02768).
T2 construct: purchased Sigma-Aldrich
Description: Steady-state and time-resolved fluorescence of ligand@HSA complexes. The data set is classed as physicochemical. The following applies: HSA-bound. How it is done: as §2, §3
FIGURE 2 (A) Fluorescence spectra for GFT-M2 in PBS (gray) and for GFT-M2@HSA (green). […] Measurements were performed at λexc = 340 nm in PBS; for ligand@HSA complexes, solutions were at 1:1 M ratio (10 μM).

The nature of data set [5]: Fluorescence of free ligand in organic solvents or PBS. The class given is physicochemical. The protocol: as §2, §3
An important point to discuss is the low fluorescence yield value of GFT-M2 within the protein cavities (ϕF ∼ 0.01) compared with that obtained in cyclohexane (ϕF ∼ 0.13). […] It is worth to mention that this is a dynamic process that lowers τF values ([Tamarit et al., 2021]; [Tamarit et al., 2022]). With the aim of investigating this possibility for GFT-M2, fluorescence measurements were performed in the non-polar solvent toluene in the presence of increasing amounts of Tyr and Trp (due to solubility requirements, the N-acetyl methyl ester amino acid derivatives, namely, NAc-TyrMe or NAc-TrpMe, were used). […] It is worth to mention that using either Tyr or Trp as quenchers, a new band with λmax ∼ 490 nm arose at high amino acid concentrations (insets of Figure 3); this is attributed to emission from phenolate-like species involving interaction between hydrogen-bonded GFT-M2 and Tyr (or Trp) in the ground state. However, and as discussed above, these species have not been observed in the supramolecular GFT-M2@HSA complex, since LE states predominate. Therefore, it would exist an additional deactivation route for ^1GFT-M2* within the protein, which would be strongly affected by the conformational arrangement of the metabolite in the binding sites (see the discussion on MD simulations).

The next data set concerns cellular milieu. More on the design: method as in El Ouardi et al., 2023. The following applies: UVA light, biological media; ref El Ouardi et al., 2023; cited from earlier work.
For data set [6], the target named is T2, HSA. Description: Binding constant (K B) by modified Scatchard analysis from UV absorption and fluorescence. As to conditions: binding constant within HSA, PBS. The protocol: as §1
An additional point to address is the strength of interaction of the drug and its two metabolites within HSA, since it is key for their transport to the specific targets and for their toxicological activity. […] To this end, a modified Scatchard analysis was performed (Supplementary Figures S6–S8).

A further data set concerns HSA and HAG. Description: Competing interactions in an equimolar mixture of the two proteins (fluorescence). The class given is binding, human. The following applies: fluorescence emission, λexc = 340 nm.
Data set [7] addresses T2, HSA. As to conditions: HSA-bound, λexc = 340 nm, PBS; ref 36 (Tamarit et al., 2022); cited from earlier work.
[8] abbreviates: λexc = 340 nm, PBS, 1:1 (10 μM).

T2 sequence (P02768 25-609): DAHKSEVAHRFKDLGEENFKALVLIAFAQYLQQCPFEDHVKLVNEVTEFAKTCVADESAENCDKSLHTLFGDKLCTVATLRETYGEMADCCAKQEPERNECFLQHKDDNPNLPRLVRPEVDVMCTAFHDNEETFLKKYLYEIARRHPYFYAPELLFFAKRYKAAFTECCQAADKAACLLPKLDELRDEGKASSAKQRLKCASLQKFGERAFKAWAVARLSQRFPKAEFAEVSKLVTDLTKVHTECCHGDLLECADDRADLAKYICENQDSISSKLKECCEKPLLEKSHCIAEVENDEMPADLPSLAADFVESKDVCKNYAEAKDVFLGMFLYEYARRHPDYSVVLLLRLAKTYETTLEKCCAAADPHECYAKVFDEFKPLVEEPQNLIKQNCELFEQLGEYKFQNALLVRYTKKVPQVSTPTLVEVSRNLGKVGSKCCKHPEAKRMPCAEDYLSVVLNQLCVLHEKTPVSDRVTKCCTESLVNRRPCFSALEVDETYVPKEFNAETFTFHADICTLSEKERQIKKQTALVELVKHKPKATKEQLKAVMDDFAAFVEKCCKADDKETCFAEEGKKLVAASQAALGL

On to `COc1cc2ncnc(Nc3ccc(F)c(Cl)c3)c2cc1OCCCN1CCOCC1` [GFT, gefitinib, reference compound], for which the ϕF in data set [1] is listed as about 0.19; at HAG [3] (λexc = 340 nm, PBS), 0.03. Moreover, the “K B” value in the data set with HAG [2] is 1.2 × 10^5 M^-1 and 1.2 ± 0.08 × 10^5 M^-1. Further, on HAG [3] (λexc = 340 nm, PBS, one-exponential fit, or mean lifetime where marked d), the τF is 0.8 ns.

On to `Oc1cc2ncnc(Nc3ccc(F)c(Cl)c3)c2cc1OCCCN1CCOCC1` [GFT-M2, O-desmethyl gefitinib], for which the “weight of τ1 component” value came to 75% on HSA [4] (two-exponential fit) and 35% at HAG [3]. Besides, the “weight of τ2 component” value is 25% on HSA [4] (two-exponential fit) and 65% on HAG [3]. Besides, the τ2 on HSA [4] (two-exponential fit, long component) is on record as 4.9 ns; on HAG [3] it was 4.1 ns. In addition, the τ1 on HSA [4] (two-exponential fit, short component) was found to be 0.6 ns; at HAG [3] it was 0.7 ns. In addition, the “λmax (fluorescence)” value on HSA [4] (setting [8]) is about 388 nm; at HAG [3] (λexc = 340 nm, PBS), about 446 nm. Moreover, the ϕF is about 0.01 at HSA [4] (setting [8]); about 0.13 in data set [5] (cyclohexane); 0.03 at HAG [3] (λexc = 340 nm, PBS). On HSA [4] (λexc = 340 nm, PBS, mean lifetime <τF> = a1τ1 + a2τ2), the τF is listed as 1.0^d ns. Further, the fluorescence maximum result in data set [5] (free in the bulk solution (PBS), λexc = 340 nm) is “ca. 440 nm”. The “fluorescence maximum λmax” value in [5] (non-polar solvents) is on record as “ca. 390 nm”. Also, the “λmax of new band at high amino acid concentrations” value in data set [5] (toluene, Tyr or Trp as quenchers, phenolate-like species) is listed as about 490 nm. For the same compound, the “fluorescence lifetime of the LE singlet state” value in [5] (toluene, with NAc-TyrMe or NAc-TrpMe at molar ratios 1:50 to 1:300) was “ca. 2.42 ns”. Moreover, the “K B” value with HAG [2] was 1.5 × 10^5 M^-1 and 1.5 ± 0.05 × 10^5 M^-1; on HSA [6], 1.8 ± 0.16 × 10^5 M^-1. Also, the phototoxicity entry in the data set with cellular milieu is given as “much less phototoxic”. The “shoulder detected in the fluorescence spectrum” value on HAG [3] (λexc = 340 nm, PBS, value between brackets) is about 388 nm.

With `COc1cc2ncnc(Nc3ccc(F)c(Cl)c3)c2cc1O` [GFT-M1, O-desmorpholinopropyl gefitinib], the “relative affinity in equimolar mixture of HSA and HAG” value in the data set on HSA and HAG is given as “higher affinity to HSA”. Also, at HSA [7], the τF was 2.5 ^b ns and the ϕF was 0.15 ^b. In the data set on HAG [2], the “K B” value was 9.1 ± 0.32 × 10^4 M^-1. The phototoxicity result in the data set on cellular milieu is recorded as “highest phototoxicity”. Moreover, at HAG [3], the “weight of τ1 component” value stood at 28%, the “weight of τ2 component” value is reported as 72%, the τ2 is reported as about 3.1 ns and the τ1 is given as about 0.5 ns. Besides, at HAG [3] (λexc = 340 nm, PBS), the ϕF is given as 0.04 and the “λmax (fluorescence)” value is given as about 442 nm. Besides, on HSA [6], the “K B” value is reported as 1.2 ± 0.06 × 10^5 M^-1.
